Measured values from PMC8080589, “Modulation of αVβ6 integrin in osteoarthritis-related synovitis and the interaction with VTN(381–397 a.a.) competing for TGF-β1 activation” (Experimental & Molecular Medicine, 2021).
Ends that are not written are not given here.

B1: S100A9: danger-associated molecular pattern (protein, UniProt P06702 1-114, looked up)
Protein S100-A9: MTCKMSQLERNIETIINTFHQYSVKLGHPDTLNQGEFKELVRKDLQNFLKKENKNEKVIEHIMEDLDTNADKQLSFEEFIMLMARLTWASHEKMHEGDEGPGHHHKPGLGEGTP
B2: HMGB1: danger-associated molecular pattern (protein, UniProt P09429 1-215, looked up)
High mobility group protein B1: MGKGDPKKPRGKMSSYAFFVQTCREEHKKKHPDASVNFSEFSKKCSERWKTMSAKEKGKFEDMAKADKARYEREMKTYIPPKGETKKKFKDPNAPKRPPSAFFLFCSEYRPKIKGEHPGLSIGDVAKKLGEMWNNTAADDKQPYEKKAAKLKEKYEKDIAAYRAKGKPDAAKKGVVKAEKSKKKKEEEEDEEDEEDEEEEEDEEDEDEEEDDDDE

Assays:
integrin αVβ6 = molecular target: T1, integrin αVβ6 (Homo sapiens, UniProt P06756+P18564); experiment: Competition study, 125ISIB-echistatin vs ligands on coated αVβ6; type: binding; settings: competition with 20 nM 125ISIB-echistatin, recombinant human αVβ6 coated at 1.8 µg/mL, IBB pH 7.4 / 0.5% BSA, 2 h room temperature, duplicate wells, gamma counter, five-parameter logistic
T1 construct: purchased R&D System; Minneapolis, MN, USA
Method: (§1) A competition study was performed to investigate the interaction of VTN(381–397 a.a.) with five different integrins. Radiolabeled echistatin, a disintegrin known to bind integrin receptors, was used as a tracer for the binding assays. Lyophilized echistatin was provided by Bachem (Bubendorf, Switzerland) and radiolabeled by conjugation with a radioiodinated benzoate (^125ISIB) to the epsilon amino group of lysine side chains. For the five integrins, α5β1, αVβ1, αVβ3, αVβ5, and αVβ6 (R&D System; Minneapolis, MN, USA), a solution at 1.8 µg/mL was prepared with integrin-binding buffer (IBB; 20 mM Tris pH 7.4, 150 mM NaCl, 2 mM CaCl2, 1 mM MgCl2, 1 mM MnCl2). Nunc Maxisorp Module plates were coated overnight at 4 °C with integrin complex at 1.8 µg/mL. After the wells were washed with sample buffer (IBB, 0.5% BSA), blocking solution (IBB, 2% BSA) was added, and the microplate was incubated for 2 h at room temperature. The wells were then washed three times with IBB/0.5% BSA. Then, ^125ISIB-echistatin was diluted in sample buffer to fixed concentrations of 4, 4, 8, 8, and 20 nM for α5β1, αVβ1, αVβ3, αVβ5, and αVβ6 competition studies, respectively. The ^125ISIB-echistatin was mixed with sample buffer at a ratio of 1:1 (total binding = control well) or with increasing concentrations of ligands (Supplementary information SI1) [complete VTN, VTN(381–397 a.a.), VTN(365–381 a.a.)] at a ratio 1:1 and added to wells in duplicate. We used 1,4,7-triazacyclononane-1,4,7-triacetic acid (NOTA) as a negative control. […] After rinsing, bound radioactivity was quantified using a gamma counter. The percentage of relative binding of radiolabeled echistatin was calculated as follows: radioactivity in the test well*100/radioactivity in the reference well. […] For comparison of the potency of ligands in inhibiting bound ^125ISIB-echistatin for different integrin complexes, the half-maximal inhibitory concentration (IC50) was calculated. The IC50 value was determined by constructing a dose–response curve and examining the effect of different concentrations of ligands on ^125ISIB-echistatin binding. […]
To determine if VTN(381–397 a.a.) could interact with integrins, we investigated its ability to compete with radiolabeled echistatin for binding to five different integrin complexes: α5β1, αVβ1, αVβ3, αVβ5 and αVβ6. […] First, the binding affinity of echistatin to the five integrins was measured by determining the equilibrium dissociation constant (KD). […] The fixed concentration of radiolabeled echistatin was determined according to its KD value. For each ligand concentration, the relative binding of ^125ISIB-echistatin to coated integrins was then measured, and values were plotted versus the logarithm of ligand concentration.

[1] = test system: αV integrin subunit expression, human fibroblast-like synoviocytes (FLSs); experiment: αV subunit expression in FLSs by western blot after stimulation; type: cell-based; settings: OA FLSs, western blot normalized to GAPDH; IL-1β, IL-6, TNF-α 10 ng/mL 3 or 7 days; prednisolone, dexamethasone 1 μM 3 or 7 days; HMGB1 10, 50, 100 ng/mL 3 days; S100A9, S100A12 100, 200 ng/mL 3 days or 24 h; AGE-BSA 50, 100, 200 μg/mL 3 days or 24 h; menadione 25–50–100 μM 3 h; H2O2 100–200–400 μM 2 h
Method: (§2) Synovial membranes were obtained from 22 OA patients (14 females, 8 males; mean age 69.8 ± 9.6 years, BMI 30.9 ± 6.8) during knee replacement, and primary synovial fibroblasts were isolated as explained previously. The research ethics committee of CHU de Liege (Belgium) approved the study, and the patient gave informed consent to allow research procedures on samples. Human fibroblast-like synoviocytes (FLSs) were then cultured in DMEM supplemented with 10% FBS, 1% Pen/Strep, and 1% L-glutamine (all from Lonza; Basel, Switzerland) at 37 °C in an atmosphere of 5% CO2. In a plate, 5 × 10^4 FLSs were stimulated with different compounds to analyze the modulation of αVβ6: (i) TGF-β1, TNF-α, IL-1β, or IL-6 were used for 3 or 7 days at a concentration of 10 ng/mL; (ii) among the danger-associated molecular patterns, high-mobility group box 1 (HMGB1) was tested at 10, 50, and 100 ng/mL for 3 days, while S100A9 and S100A12 were tested at 100 and 200 ng/mL for 3 days or 24 h; (iii) advanced glycation end product (AGE-BSA) was tested at 50, 100, and 200 μg/mL for 3 days or 24 h; (iv) prednisolone and dexamethasone were used at 1 μM for 3 or 7 days; and (v) menadione or H2O2 was used to induce oxidative stress at 25–50–100 μM (3 h) and 100–200–400 μM (2 h), respectively, without FBS in the medium.
(§3) The expression of αV and β6 subunits and α-SMA in FLSs was evaluated by western blot analysis. Cells were scraped from plates and lysed with lysis buffer (25 mM HEPES, 150 mM NaCl, 0.5% Triton, 10% glycerol, 1 mM dithiothreitol) containing phosphatase inhibitors (25 mM β-glycerophosphate, 1 mM Na3VO4, and 1 mM NaF) and complete protease inhibitor mixture (Roche Applied Science; Penzberg, Germany). Total proteins were separated by 10% SDS–PAGE gels (12% for α-SMA) and transferred onto PVDF membranes. The membranes were then incubated with anti-αV polyclonal antibody (1:250 dilution) (Cell Signaling Technology; Boston, MA, USA), anti-β6 polyclonal antibody (1:1000 dilution) (Abcam; Cambridge, UK) or anti-α-SMA monoclonal antibody (Agilent; Santa Clara, CA, USA; 1:1000 dilution). HRP-conjugated anti-rabbit antibody (1:1000 dilution) (Cell Signaling Technology) was used as the secondary antibody. Immunoblots were developed using the ECL chemiluminescent detection system. Rabbit anti-glyceraldehyde 3-phosphate dehydrogenase (GAPDH) (Merck) or rabbit anti-heat shock protein 90 (Hsp90; Santa Cruz) was used as loading controls at a dilution of 1:10,000 or 1:200, respectively. Values of optical intensity were normalized to GAPDH or Hsp90 levels. Data were analyzed by paired Wilcoxon test; a p-value < 0.05 was considered statistically significant. Statistical analysis was performed with GraphPad Prism 6 software (San Diego, CA, USA).
Supplementary information SI3.
Variation of αV and β6 expression in human fibroblast-like synoviocytes after stimulation with different compounds. Time of stimulation and employed substances are indicated. The graphs represent αV and β6 expression before and after stimulation, obtained by western blot. Values were normalized to GAPDH and analysed by paired Wilcoxon test.
IL-1β 10 ng/mL 3 days IL-6 10 ng/mL 3 daysIL-6 Prednisolone 1µM 3 daysPrednisolone […]
Dexamethasone 1µM 3 days TNF-α 10 ng/mL 3 days TGF-β 10 ng/mL 3 days
(1 picture or pasted object on this page, not shown here)
0.0 control IL-6 0.0 control PRE […]

[2] = test system: β6 integrin subunit expression, human fibroblast-like synoviocytes (FLSs); experiment: β6 subunit expression in FLSs by western blot after stimulation; type: cell-based; settings: OA FLSs, western blot normalized to GAPDH; IL-1β, IL-6, TNF-α 10 ng/mL 3 or 7 days; prednisolone, dexamethasone 1 μM 3 or 7 days; HMGB1 10, 50, 100 ng/mL 3 days; S100A9, S100A12 100, 200 ng/mL 3 days or 24 h; AGE-BSA 50, 100, 200 μg/mL 3 days or 24 h; menadione 25–50–100 μM 3 h; H2O2 100–200–400 μM 2 h
Method: as §2, §3
IL-1β 10 ng/mL 3 days IL-6 10 ng/mL 3 daysIL-6 Prednisolone 1µM 3 daysPrednisolone
0.0 control IL-6 0.0 control PRE
Dexamethasone 1µM 3 daysDexamethasone TNF-α 10 ng/mL 3 days AGE 50 µg/mL 24 h

integrin αVβ3 = molecular target: T2, integrin αVβ3 (Homo sapiens, UniProt P05106+P06756); experiment: Competition study, 125ISIB-echistatin vs ligands on coated αVβ3; type: binding; settings: competition with 8 nM 125ISIB-echistatin, recombinant human αVβ3 coated at 1.8 µg/mL, IBB pH 7.4 / 0.5% BSA, 2 h room temperature, duplicate wells
T2 construct: purchased R&D System; Minneapolis, MN, USA
Method: as §1, with “µg/mL.” for “µg/mL. After the wells were washed with sample buffer (IBB, 0.5% BSA), blocking solution (IBB, 2% BSA) was added, and the microplate was incubated for 2 h at room temperature. The wells were then washed three times with IBB/0.5% BSA. Then, ^125ISIB-echistatin was diluted in sample buffer to fixed concentrations of 4, 4, 8, 8, and 20 nM for α5β1, αVβ1, αVβ3, αVβ5, and αVβ6 competition studies, respectively. The ^125ISIB-echistatin was mixed with sample buffer at a ratio of 1:1 (total binding = control well) or with increasing concentrations of ligands (Supplementary information SI1) [complete VTN, VTN(381–397 a.a.), VTN(365–381 a.a.)] at a ratio 1:1 and added to wells in duplicate. We used 1,4,7-triazacyclononane-1,4,7-triacetic acid (NOTA) as a negative control.”

integrin αVβ5 = molecular target: T3, integrin αVβ5 (Homo sapiens, UniProt P06756+P18084); experiment: Competition study, 125ISIB-echistatin vs ligands on coated αVβ5; type: binding; settings: competition with 8 nM 125ISIB-echistatin, recombinant human αVβ5 coated at 1.8 µg/mL, IBB pH 7.4 / 0.5% BSA, 2 h room temperature, duplicate wells
T3 construct: purchased R&D System; Minneapolis, MN, USA
Method: as §1, with “µg/mL.” for “µg/mL. After the wells were washed with sample buffer (IBB, 0.5% BSA), blocking solution (IBB, 2% BSA) was added, and the microplate was incubated for 2 h at room temperature. The wells were then washed three times with IBB/0.5% BSA. Then, ^125ISIB-echistatin was diluted in sample buffer to fixed concentrations of 4, 4, 8, 8, and 20 nM for α5β1, αVβ1, αVβ3, αVβ5, and αVβ6 competition studies, respectively. The ^125ISIB-echistatin was mixed with sample buffer at a ratio of 1:1 (total binding = control well) or with increasing concentrations of ligands (Supplementary information SI1) [complete VTN, VTN(381–397 a.a.), VTN(365–381 a.a.)] at a ratio 1:1 and added to wells in duplicate. We used 1,4,7-triazacyclononane-1,4,7-triacetic acid (NOTA) as a negative control.”

T1 sequence (P06756 31-992 limits assumed): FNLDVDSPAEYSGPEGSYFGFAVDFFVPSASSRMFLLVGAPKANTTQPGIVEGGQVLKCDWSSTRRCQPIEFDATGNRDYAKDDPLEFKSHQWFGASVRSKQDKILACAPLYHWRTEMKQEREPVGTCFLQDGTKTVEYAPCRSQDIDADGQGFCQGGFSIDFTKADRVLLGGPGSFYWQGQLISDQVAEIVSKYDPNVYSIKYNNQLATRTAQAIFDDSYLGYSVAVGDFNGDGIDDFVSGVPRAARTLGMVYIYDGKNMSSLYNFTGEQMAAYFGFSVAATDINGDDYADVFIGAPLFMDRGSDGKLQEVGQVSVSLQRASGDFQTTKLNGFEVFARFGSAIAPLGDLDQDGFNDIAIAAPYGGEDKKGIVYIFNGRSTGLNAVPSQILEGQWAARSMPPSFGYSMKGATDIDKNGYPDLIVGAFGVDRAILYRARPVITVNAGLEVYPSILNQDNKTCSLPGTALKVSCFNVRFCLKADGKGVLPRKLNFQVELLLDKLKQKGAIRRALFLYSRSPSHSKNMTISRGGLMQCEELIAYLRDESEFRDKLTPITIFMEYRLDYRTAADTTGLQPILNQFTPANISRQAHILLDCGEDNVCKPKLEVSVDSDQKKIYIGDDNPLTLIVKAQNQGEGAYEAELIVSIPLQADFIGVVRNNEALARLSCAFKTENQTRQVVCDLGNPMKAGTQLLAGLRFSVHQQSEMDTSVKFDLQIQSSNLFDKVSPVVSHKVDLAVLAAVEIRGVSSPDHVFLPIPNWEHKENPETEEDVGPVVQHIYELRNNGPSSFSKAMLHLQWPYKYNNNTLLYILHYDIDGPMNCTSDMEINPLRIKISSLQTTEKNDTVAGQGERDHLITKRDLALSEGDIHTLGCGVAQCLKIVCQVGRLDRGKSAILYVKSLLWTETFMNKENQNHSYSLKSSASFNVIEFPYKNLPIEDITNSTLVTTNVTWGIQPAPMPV
T1 sequence (P18564 22-707 limits assumed): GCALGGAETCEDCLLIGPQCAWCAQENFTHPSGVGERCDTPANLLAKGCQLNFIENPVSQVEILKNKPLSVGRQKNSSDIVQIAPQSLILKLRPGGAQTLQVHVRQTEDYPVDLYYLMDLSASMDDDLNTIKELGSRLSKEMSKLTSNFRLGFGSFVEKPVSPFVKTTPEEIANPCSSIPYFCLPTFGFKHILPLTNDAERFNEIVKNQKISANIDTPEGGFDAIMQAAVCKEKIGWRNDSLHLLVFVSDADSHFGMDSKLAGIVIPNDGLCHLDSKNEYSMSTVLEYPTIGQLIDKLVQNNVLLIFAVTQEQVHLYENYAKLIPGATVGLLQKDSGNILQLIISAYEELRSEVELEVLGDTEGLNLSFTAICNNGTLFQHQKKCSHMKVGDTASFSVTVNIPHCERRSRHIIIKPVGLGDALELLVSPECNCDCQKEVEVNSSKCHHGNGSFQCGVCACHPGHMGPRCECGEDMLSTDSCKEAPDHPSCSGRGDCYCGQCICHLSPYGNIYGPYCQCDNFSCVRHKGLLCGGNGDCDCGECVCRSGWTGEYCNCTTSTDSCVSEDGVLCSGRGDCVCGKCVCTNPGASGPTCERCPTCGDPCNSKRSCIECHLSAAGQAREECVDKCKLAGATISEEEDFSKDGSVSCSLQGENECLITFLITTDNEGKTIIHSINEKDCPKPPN
T3 sequence (P06756 31-992 limits assumed): as the sequence (P06756 31-992 limits assumed) above
T3 sequence (P18084 24-719 limits assumed): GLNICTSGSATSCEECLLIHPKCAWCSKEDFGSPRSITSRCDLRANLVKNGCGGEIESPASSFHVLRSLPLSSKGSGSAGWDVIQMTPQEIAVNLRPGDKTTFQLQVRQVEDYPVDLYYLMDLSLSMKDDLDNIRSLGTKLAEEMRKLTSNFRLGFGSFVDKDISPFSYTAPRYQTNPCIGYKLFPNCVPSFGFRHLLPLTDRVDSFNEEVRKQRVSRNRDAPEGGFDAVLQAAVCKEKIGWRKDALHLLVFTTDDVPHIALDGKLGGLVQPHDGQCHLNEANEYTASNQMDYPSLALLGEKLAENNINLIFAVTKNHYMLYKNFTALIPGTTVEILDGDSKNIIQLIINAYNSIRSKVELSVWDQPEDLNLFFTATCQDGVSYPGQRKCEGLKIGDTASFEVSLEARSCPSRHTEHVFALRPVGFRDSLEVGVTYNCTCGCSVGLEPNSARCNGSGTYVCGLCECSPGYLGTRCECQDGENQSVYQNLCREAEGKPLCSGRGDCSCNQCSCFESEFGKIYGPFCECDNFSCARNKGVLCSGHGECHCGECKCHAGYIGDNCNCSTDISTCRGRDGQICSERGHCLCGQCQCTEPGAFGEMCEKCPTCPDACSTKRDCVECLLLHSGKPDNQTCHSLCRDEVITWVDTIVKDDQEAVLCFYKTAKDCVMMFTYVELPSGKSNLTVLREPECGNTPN
T2 sequence (P06756 31-992 limits assumed): as the sequence (P06756 31-992 limits assumed) above
T2 sequence (P05106 27-718 limits assumed): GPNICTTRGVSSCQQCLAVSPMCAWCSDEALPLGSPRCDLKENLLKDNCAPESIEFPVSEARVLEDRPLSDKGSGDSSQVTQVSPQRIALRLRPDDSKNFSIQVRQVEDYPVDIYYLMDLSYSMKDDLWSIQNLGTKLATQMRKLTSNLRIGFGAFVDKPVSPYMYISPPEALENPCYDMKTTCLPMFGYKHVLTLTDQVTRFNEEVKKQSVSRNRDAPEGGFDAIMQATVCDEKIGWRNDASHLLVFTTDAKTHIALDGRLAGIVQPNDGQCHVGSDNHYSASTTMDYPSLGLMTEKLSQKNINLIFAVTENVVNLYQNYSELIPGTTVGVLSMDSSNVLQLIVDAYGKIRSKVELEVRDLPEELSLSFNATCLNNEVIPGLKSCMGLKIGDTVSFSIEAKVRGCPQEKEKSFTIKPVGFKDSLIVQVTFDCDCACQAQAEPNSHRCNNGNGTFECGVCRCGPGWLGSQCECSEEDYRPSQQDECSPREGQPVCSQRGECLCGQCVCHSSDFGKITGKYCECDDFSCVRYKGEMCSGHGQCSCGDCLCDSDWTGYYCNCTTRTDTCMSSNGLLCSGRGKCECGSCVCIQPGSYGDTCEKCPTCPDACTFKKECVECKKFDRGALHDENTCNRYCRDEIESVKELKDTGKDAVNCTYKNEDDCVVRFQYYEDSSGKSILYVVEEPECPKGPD

Row | IC50 (integrin αVβ6) [nM] | IC50 (integrin αVβ3) [nM] | IC50 (integrin αVβ5) [nM] | Molecule | effect on αV subunit expression [1] | effect on β6 subunit expression [2]
1 | 3200 | – | – | SQRGHSRGRNQNSRRPS [VTN(381–397 a.a.)] | – | –
2 | – | – | – | OO [H2O2] | none of these treatments influenced the expression levels of the αV and β6 integrin subunits | none of these treatments influenced the expression levels of the αV and β6 integrin subunits
3 | – | – | – | TNF-α | none of these treatments influenced the expression levels of the αV and β6 integrin subunits | none of these treatments influenced the expression levels of the αV and β6 integrin subunits
4 | – | – | – | AGE-BSA: advanced glycation end product | none of these treatments influenced the expression levels of the αV and β6 integrin subunits | none of these treatments influenced the expression levels of the αV and β6 integrin subunits
5 | – | – | – | IL-1β: proinflammatory cytokine | none of these treatments influenced the expression levels of the αV and β6 integrin subunits | none of these treatments influenced the expression levels of the αV and β6 integrin subunits
6 | – | – | – | C[C@]12C=CC(=O)C=C1CC[C@@H]1[C@@H]2[C@@H](O)C[C@@]2(C)[C@H]1CC[C@]2(O)C(=O)CO [prednisolone] | none of these treatments influenced the expression levels of the αV and β6 integrin subunits | none of these treatments influenced the expression levels of the αV and β6 integrin subunits
7 | – | – | – | IL-6: proinflammatory cytokine | none of these treatments influenced the expression levels of the αV and β6 integrin subunits | none of these treatments influenced the expression levels of the αV and β6 integrin subunits
8 | – | – | – | C[C@@H]1C[C@H]2[C@@H]3CCC4=CC(=O)C=C[C@]4(C)[C@@]3(F)[C@@H](O)C[C@]2(C)[C@@]1(O)C(=O)CO [dexamethasone] | none of these treatments influenced the expression levels of the αV and β6 integrin subunits | none of these treatments influenced the expression levels of the αV and β6 integrin subunits
9 | – | – | – | CC1=CC(=O)c2ccccc2C1=O [menadione] | none of these treatments influenced the expression levels of the αV and β6 integrin subunits | none of these treatments influenced the expression levels of the αV and β6 integrin subunits
10 | 250 | 1500 | 130 | VTN: whole VTN protein | – | –
11 | – | – | – | B1 | none of these treatments influenced the expression levels of the αV and β6 integrin subunits | none of these treatments influenced the expression levels of the αV and β6 integrin subunits
12 | – | – | – | B2 | none of these treatments influenced the expression levels of the αV and β6 integrin subunits | none of these treatments influenced the expression levels of the αV and β6 integrin subunits
